Reference: patent US11203598B2, “Compounds for repressing cancer cell growth” (Institute For Cancer Research, priority 2018, dated 2021)

How the values were obtained:
[1] = system: Noxa in 8226 bortezomib resistant multiple myeloma cell line; experiment: Western blot of Noxa; format: cell-based; conditions: 25 μM Analog 4, 100 μM Analog 11
Description: Referring to FIG. 20 (panel C), 1×10^6 cells/well were seeded in a 12-well plate. 8226 parental and resistant multiple myeloma cell lines were treated with 100 μM CB002, 25 μM Analog 4, or 100 μM Analog 11.

[2] = biological target: T1, mutant p53 in DLD-1 cells (Homo sapiens, UniProt P04637, S241F); experiment: cycloheximide chase assay; format: cell-based; conditions: 24 hours treatment, then 100 μg/mL cycloheximide, 0-10 hours
T1 construct: endogenous in cells; host or cells: DLD-1 colorectal cancer cells
Description: (§1) As mutant p53 can acquire a gain-of-function activity, targeting mutant p53 for degradation has been explored as a therapeutic strategy. To investigate the capability of CB002 to impact on mutant p53 protein expression, Western blot analysis was used. […] To confirm these findings, a cycloheximide chase assay was performed. Cells were treated with vehicle control or CB002 for a period of 24 hours. Subsequently, 100 μg/mL cycloheximide was added to the wells and protein lysates were collected at different time points between 0-10 hours. […] Referring to FIG. 6, experiments with SW480 cells (Panels A and B) and analysis of DLD-1 colorectal cancer cells (Panel C) are shown. Cells were treated for a 24 hour period with DMSO, CB002 or positive control followed by 100 μg/mL of cycloheximide addition, and protein stability was evaluated in a time course ranging from 0-10 hours. Histone deacetylase inhibitor, SAHA and Hsp90 inhibitor Geldanamycin (1 μM GA) were used as positive controls.

[3] = biological target: T2, mutant p53 in SW480 cells (Homo sapiens, UniProt P04637, P309S/R273H); experiment: cycloheximide chase assay; format: cell-based; conditions: 24 hours treatment, then 100 μg/mL cycloheximide, 0-10 hours
T2 construct: endogenous in cells; host or cells: SW480 colorectal cancer cells
Description: as §1

WI38 normal cells = experiment: apoptosis assay, sub-G1 analysis (propidium iodide, flow cytometry); format: cell-based, human
Description: Apoptotic cells were quantified by sub-G1 analysis. Cells were seeded at a density of 2.5×10^5 to 5×10^5 in a 6-well plate and treated for 48-72 hours. After treatment, adherent cells were trypsinized and collected along with floating cells, washed with PBS and fixed in 70% ethanol. Cells were then incubated in a Phosphate-citric acid buffer (0.2 M Na2HPO4+0.1 M Citric Acid, pH 7.8) at room temperature for 5 minutes, spun down and resuspended for staining with 50 μg/mL propidium iodide (PI) in the presence of 250 μg/mL pancreatic ribonuclease (RNase A). Sub-G1 analyses were performed using an Epics Elite Epics flow cytometer (Coulter-Beckman).
Cells were seeded out at 1×10^6 cells/well on six well plates and treated with CB002 and Analog 11 at ranging doses with DMSO controls. Cells were harvested after 72 hours of treatment, all cells including floating cells were fixed with ethanol and stained with Propidium Iodide and then analyzed using Epics Elite flow cytometer to measure the DNA content of the stained cells.

cell cycle G2 checkpoint = experiment: propidium iodide staining cell cycle analysis; format: cell-based; conditions: 24 hour treatment, alone and with etoposide
Description: Referring to FIG. 22 (panels A-F), propidium iodide staining cell cycle analysis for 24 hour treatment with DMSO (panel A), CB002 (panel B), CB002 and etoposide (panel C), etoposide (panel D), caffeine (panel E), and caffeine and etoposixe (panel F). […] The deregulation of the G2 checkpoint as a mechanism by caffeine prevents […] tumor cells that are treated with DNA damaging drugs, such as etoposide, from arresting to have time to repair, and thus sensitizes cancer cells to cell death.

[4] = system: autophagic vacuoles in DLD-1 cells; experiment: CYTO-ID autophagy detection kit; format: cell-based, human; conditions: 50 μM, 24 hours, versus DMSO
[5] = system: RXF393 renal cancer cells; experiment: CellTiter-Glo luminescent cell viability assay; format: cell-based; conditions: Homo sapiens, RXF 393; RXF393, 72 hours, GraphPad
Description: (§2) Cells were seeded in 96-well plates at a density of 5×10^3 cells per well. 20 μL of CellTiter-Glo® Reagent was added directly to the wells, following the manufacturer's protocol, and bioluminescence signal was determined using an IVIS imaging system.
(§3) To begin establishing the potential of CB002 as a candidate therapeutic agent, its therapeutic index was determined by treating cancer (DLD-1, SW480, and RXF393) and normal (WI38 and MRC5) cell lines with concentrations of CB002 ranging from 0-500 μM for a period of 72 hours and assessing cell viability by the CellTiter-Glo® luminescence assay (see, FIG. 2). CB002 has a significant therapeutic index among the cells tested.

DLD-1 cells = experiment: CellTiter-Glo luminescent cell viability assay; format: cell-based; conditions: Homo sapiens; DLD-1, 72 hours, GraphPad
Description: as §2, §3

[6] = system: MRC5 normal lung fibroblasts; experiment: CellTiter-Glo luminescent cell viability assay; format: cell-based; conditions: Homo sapiens, MRCS (normal), 72 hours, GraphPad
Description: as §2, §3

DLD-1 p73kd cells = experiment: CellTiter-Glo luminescent cell viability assay; format: cell-based; conditions: Homo sapiens, 72 hours, GraphPad
Description: as §2, §3

| Structure (SMILES) | Noxa expression [1] | mutant p53 stability [2] | mutant p53 stability [3] | sub-G1 population (WI38 normal cells; 96 μM, 48 hours, DMSO control 7.6%) [%] | sub-G1 fraction (WI38 normal cells; 200 μM, 72 hours) | effect on cell cycle G2 checkpoint (cell cycle G2 checkpoint) | autophagic vacuole-specific staining [4] | IC50 [5] [µM] | IC50 (DLD-1 cells) [µM] | IC50 [6] [µM] | IC50 (DLD-1 p73kd cells) [µM] |
| --- | --- | --- | --- | --- | --- | --- | --- | --- | --- | --- | --- |
| Cn1c(=O)c2c(nc(Nc3ccccc3)n2C)n(C)c1=O [Analog 11, 8-anilino-1,3,7-trimethyl-3,7-dihydro-1Hpurine-2,6-dione] | able to induce Noxa expression |  |  |  |  |  |  |  |  |  |  |
| Cn1c(=O)c2[nH]c(Nc3ccccc3)nc2n(C)c1=O [CB002, 8-anilino-1,3-dimethyl-3,7-dihydro-1H-purine-2,6-dione] |  | did not affect mutant p53 stability | did not affect mutant p53 stability | 9.8 | relatively unchanged | does not appear to deregulate the G2 cell cycle checkpoint | increase in autophagic vacuole-specific staining | 400 | 161 | 647 | 240 |
